19 compounds from patent US9505768B2, “Compositions and methods for modulating TLR4” (The Regents of the University of California, priority 2012, dated 2016) can be followed below.

Type in all cases: cell-based
For one assay, the target named is T1, human TLR4 (Homo sapiens, UniProt O00206+Q9Y6Y9).
T1 construct: host or cells: HEK293 (HEK Blue) cells with NFκB/SEAP reporter
The experiment in a line: Human TLR4 HEK Blue NFκB/SEAP reporter assay. The note with it: hTLR4 HEK293 transfectoma; all compounds tested at 10 μM; Cmpd 1 set at 100. Here is the method:
(§1) The above assays were utilized to compare the derivatives of the lead pyrimidoindole for their ability to activate mouse and human TLR4. […] Each cytokine induction curve was first converted to a percent activity curve, and then the AUC of the percent activity curve was calculated. The process of converting to a percent activity curve allowed subtracting background and adjusting for plate-to-plate variation.
(§2) The culture supernatants were harvested after a 20-24 h incubation period. SEAP activity in the supernatants was determined by a colorimetric assay, using either the SEAPorter Assay Kit (Imgenex), with absorbance read at 405 nm, or QuantiBlue (Invivogen), with absorbance read at 630 nm.
Background: Reporter assays use an easily measured gene product as a stand-in for the process of interest.

The target in the next assay is T2, mouse TLR4 (Mus musculus, UniProt Q9JHF9+Q9QUK6).
T2 construct: host or cells: HEK293 (HEK Blue) cells with NFκB/SEAP reporter
T2 sequence (Q9QUK6 26-835): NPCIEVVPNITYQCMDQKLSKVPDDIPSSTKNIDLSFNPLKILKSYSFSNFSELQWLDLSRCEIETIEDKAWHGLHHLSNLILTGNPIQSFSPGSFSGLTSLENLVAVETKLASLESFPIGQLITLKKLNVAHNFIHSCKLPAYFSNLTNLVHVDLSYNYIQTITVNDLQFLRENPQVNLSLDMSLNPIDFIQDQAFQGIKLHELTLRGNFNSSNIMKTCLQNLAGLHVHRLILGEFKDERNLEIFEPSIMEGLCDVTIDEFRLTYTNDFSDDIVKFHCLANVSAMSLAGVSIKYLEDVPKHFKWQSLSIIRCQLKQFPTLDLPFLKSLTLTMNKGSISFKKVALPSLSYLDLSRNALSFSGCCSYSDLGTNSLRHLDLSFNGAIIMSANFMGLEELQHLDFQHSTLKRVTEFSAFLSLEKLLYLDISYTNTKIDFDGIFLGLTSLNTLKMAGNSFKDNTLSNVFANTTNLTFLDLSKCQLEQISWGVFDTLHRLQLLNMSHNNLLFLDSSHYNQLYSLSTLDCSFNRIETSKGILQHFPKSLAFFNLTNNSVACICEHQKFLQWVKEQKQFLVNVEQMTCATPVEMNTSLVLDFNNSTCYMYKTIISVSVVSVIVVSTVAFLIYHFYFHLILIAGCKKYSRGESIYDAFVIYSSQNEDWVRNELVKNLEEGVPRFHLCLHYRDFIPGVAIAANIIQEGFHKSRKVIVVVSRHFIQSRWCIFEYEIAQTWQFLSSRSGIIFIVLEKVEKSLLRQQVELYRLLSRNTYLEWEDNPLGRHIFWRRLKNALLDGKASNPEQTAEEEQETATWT
T2 sequence (Q9JHF9 19-160): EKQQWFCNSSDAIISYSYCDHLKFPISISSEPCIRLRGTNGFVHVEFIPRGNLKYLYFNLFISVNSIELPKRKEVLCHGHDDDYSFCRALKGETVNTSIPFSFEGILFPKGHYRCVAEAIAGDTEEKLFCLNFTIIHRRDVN
The experiment in a line: Murine TLR4 HEK Blue NFκB/SEAP reporter assay. The conditions noted are these: mTLR4 HEK transfectoma, 312 nM to 10 μM; Cmpd 1 set at 100. Here is the method:
as §1, §2

Assay [1] relates to mouse bone marrow derived dendritic cells (mBMDC). The assay can be described thus: IL-6 induction in mouse bone marrow derived dendritic cells (ELISA). The note with it: relative to Cmpd 1 / within series. As to the method:
as §1
BMDC were prepared from C57BL/6 mice as described. See e.g., Wu, C. […] BMDC (10^5 cells per well) were plated in 96-well plates in 200 μL of complete RPMI1640 supplemented with 10% fetal calf serum (FCS; Sigma Aldrich), 100 U/mL penicillin, and 100 μg/mL streptomycin (Invitrogen). […] After 18 h incubation, the cell culture supernatants were collected. LPS (purified LPS, Invivogen, San Diego, Calif.) or MPLA (1 μg/mL synthetic MPLA, Invivogen, San Diego, Calif.) were used as positive controls. […] The AUC was calculated from BMDC dose-response curves using Prism 5 (GraphPad, San Diego). Each cytokine induction curve was first converted to a percent activity curve, and then the AUC of the percent activity curve was calculated. The process of converting to a percent activity curve allowed subtracting background and adjusting for plate-to-plate variation.
Background: In an ELISA, binding on a coated surface is turned into a signal by an enzyme label.

A value given as a limit tells only on which side of the number the result lay.

T1 sequence (O00206 24-839): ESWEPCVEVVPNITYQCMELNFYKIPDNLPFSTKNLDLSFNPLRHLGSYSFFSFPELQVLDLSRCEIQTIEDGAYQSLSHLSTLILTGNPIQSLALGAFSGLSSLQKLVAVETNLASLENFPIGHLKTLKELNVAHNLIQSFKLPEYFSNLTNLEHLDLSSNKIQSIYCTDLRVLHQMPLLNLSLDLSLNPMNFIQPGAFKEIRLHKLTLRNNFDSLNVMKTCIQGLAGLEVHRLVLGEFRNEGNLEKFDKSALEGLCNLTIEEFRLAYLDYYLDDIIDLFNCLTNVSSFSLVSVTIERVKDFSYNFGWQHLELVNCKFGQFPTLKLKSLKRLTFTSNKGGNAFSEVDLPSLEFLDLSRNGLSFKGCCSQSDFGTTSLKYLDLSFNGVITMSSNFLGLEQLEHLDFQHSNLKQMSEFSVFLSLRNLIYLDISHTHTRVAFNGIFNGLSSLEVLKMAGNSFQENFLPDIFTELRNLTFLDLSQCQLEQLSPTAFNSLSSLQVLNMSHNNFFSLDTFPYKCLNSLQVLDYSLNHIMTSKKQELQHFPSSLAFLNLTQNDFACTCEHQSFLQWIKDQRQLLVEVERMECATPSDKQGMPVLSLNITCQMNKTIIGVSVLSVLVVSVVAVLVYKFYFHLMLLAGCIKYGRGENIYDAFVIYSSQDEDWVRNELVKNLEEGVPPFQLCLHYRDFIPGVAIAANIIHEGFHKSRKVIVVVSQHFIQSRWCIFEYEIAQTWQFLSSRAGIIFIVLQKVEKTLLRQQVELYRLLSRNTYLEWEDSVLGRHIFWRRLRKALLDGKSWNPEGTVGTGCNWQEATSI
T1 sequence (Q9Y6Y9 19-160): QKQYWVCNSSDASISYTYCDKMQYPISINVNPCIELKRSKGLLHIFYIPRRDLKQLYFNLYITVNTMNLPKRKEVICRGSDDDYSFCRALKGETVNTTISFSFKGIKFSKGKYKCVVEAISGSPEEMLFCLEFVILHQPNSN

For the compound `O=C(CSc1nc2c([nH]c3ccccc32)c(=O)n1-c1ccccc1)NC1CCCC1` [Compound 11, N-cyclopentyl-2-((4-oxo-3-phenyl-4,5-dihydro-3H-pyrimido[5,4-b]indol-2-yl)thio)acetamide], on human TLR4, the “human TLR4, values normalized to Cmpd 1” value was determined as 23. Further, on mouse TLR4, the “mouse TLR4, area under curve (AUC) values normalized to Cmpd 1” value worked out at 28.

As for `O=C(CSc1nc2c([nH]c3ccccc32)c(=O)n1-c1ccccc1)Nc1ccc2ccccc2c1` [Compound 18, N-(naphthalen-2-yl)-2-((4-oxo-3-phenyl-4,5-dihydro-3H-pyrimido[5,4-b]indol-2-yl)thio)acetamide], the “human TLR4, values normalized to Cmpd 1” value on human TLR4 turned out to be 21. At mouse TLR4, the “mouse TLR4, area under curve (AUC) values normalized to Cmpd 1” value was 2.

For the compound `O=C(CSc1nc2c([nH]c3ccccc32)c(=O)n1-c1ccccc1)NCc1ccco1` [Compound 19, N-(furan-2-ylmethyl)-2-((4-oxo-3-phenyl-4,5-dihydro-3H-pyrimido[5,4-b]indol-2-yl)thio)acetamide], the “human TLR4, values normalized to Cmpd 1” value at human TLR4 is given as 27. The “mouse TLR4, area under curve (AUC) values normalized to Cmpd 1” value on mouse TLR4 worked out at 5.

Turning to `O=C(CSc1nc2c([nH]c3ccccc32)c(=O)n1-c1ccccc1)Nc1ccc2cn[nH]c2c1` [Compound 20, N-(1H-indazol-6-yl)-2-((4-oxo-3-phenyl-4,5-dihydro-3H-pyrimido[5,4-b]indol-2-yl)thio)acetamide], on human TLR4, the “human TLR4, values normalized to Cmpd 1” value is reported as less than 1. Besides, the “mouse TLR4, area under curve (AUC) values normalized to Cmpd 1” value at mouse TLR4 is listed as less than 1.

For the compound `O=C(CSc1nc2c([nH]c3ccccc32)c(=O)n1-c1ccccc1)Nc1nccs1` [Compound 21, 2-((4-oxo-3-phenyl-4,5-dihydro-3H-pyrimido[5,4-b]indol-2-yl)thio)-N-(thiazol-2-yl)acetamide], the “human TLR4, values normalized to Cmpd 1” value on human TLR4 is given as 12. In addition, the “mouse TLR4, area under curve (AUC) values normalized to Cmpd 1” value on mouse TLR4 turned out to be 2.

As for `CCNC(=O)CSc1nc2c([nH]c3ccccc32)c(=O)n1-c1ccccc1` [Compound 22, N-ethyl-2-((4-oxo-3-phenyl-4,5-dihydro-3H-pyrimido[5,4-b]indol-2-yl)thio)acetamide], at human TLR4, the “human TLR4, values normalized to Cmpd 1” value was 8. Besides, at mouse TLR4, the “mouse TLR4, area under curve (AUC) values normalized to Cmpd 1” value is less than 1.

As for `CCCCNC(=O)CSc1nc2c([nH]c3ccccc32)c(=O)n1-c1ccccc1` [Compound 23, N-butyl-2-((4-oxo-3-phenyl-4,5-dihydro-3H-pyrimido[5,4-b]indol-2-yl)thio)acetamide], the “IL-6 activity in mBMDC (in words)” value in assay [1] was “somewhat less active”. At human TLR4, the “human TLR4, values normalized to Cmpd 1” value turned out to be 32. For the same compound, the “mouse TLR4, area under curve (AUC) values normalized to Cmpd 1” value at mouse TLR4 amounted to 31.

In the case of `CCCCCNC(=O)CSc1nc2c([nH]c3ccccc32)c(=O)n1-c1ccccc1` [Compound 24, 2-((4-oxo-3-phenyl-4,5-dihydro-3H-pyrimido[5,4-b]indol-2-yl)thio)-N-pentylacetamide], on human TLR4, the “human TLR4, values normalized to Cmpd 1” value turned out to be 23. At mouse TLR4, the “mouse TLR4, area under curve (AUC) values normalized to Cmpd 1” value is reported as 42.

Turning to `CCCCCCNC(=O)CSc1nc2c([nH]c3ccccc32)c(=O)n1-c1ccccc1` [Compound 25, N-hexyl-2-((4-oxo-3-phenyl-4,5-dihydro-3H-pyrimido[5,4-b]indol-2-yl)thio)acetamide], the “human TLR4, values normalized to Cmpd 1” value at human TLR4 amounted to 8. Besides, on mouse TLR4, the “mouse TLR4, area under curve (AUC) values normalized to Cmpd 1” value is listed as 4.

For the compound `CC(C)CNC(=O)CSc1nc2c([nH]c3ccccc32)c(=O)n1-c1ccccc1` [Compound 26, N-isobutyl-2-((4-oxo-3-phenyl-4,5-dihydro-3H-pyrimido[5,4-b]indol-2-yl)thio)acetamide], in assay [1], the “IL-6 activity in mBMDC (in words)” value is “somewhat less active”. Further, at human TLR4, the “human TLR4, values normalized to Cmpd 1” value worked out at 21. For the same compound, the “mouse TLR4, area under curve (AUC) values normalized to Cmpd 1” value on mouse TLR4 came to 24.

Take `CC(C)CCNC(=O)CSc1nc2c([nH]c3ccccc32)c(=O)n1-c1ccccc1` [Compound 27, N-isopentyl-2-((4-oxo-3-phenyl-4,5-dihydro-3H-pyrimido[5,4-b]indol-2-yl)thio)acetamide]: in assay [1], the “IL-6 activity in mBMDC (in words)” value was “somewhat less active”. The “human TLR4, values normalized to Cmpd 1” value on human TLR4 is 38. Also, the “mouse TLR4, area under curve (AUC) values normalized to Cmpd 1” value at mouse TLR4 stood at 56.

Take `CCC(CC)NC(=O)CSc1nc2c([nH]c3ccccc32)c(=O)n1-c1ccccc1` [Compound 31, 2-((4-oxo-3-phenyl-4,5-dihydro-3H-pyrimido[5,4-b]indol-2-yl)thio)-N-(pentan-3-yl)acetamide]: the “human TLR4, values normalized to Cmpd 1” value at human TLR4 turned out to be 11. Moreover, at mouse TLR4, the “mouse TLR4, area under curve (AUC) values normalized to Cmpd 1” value amounted to 8.

Take `CC(C)(C)NC(=O)CSc1nc2c([nH]c3ccccc32)c(=O)n1-c1ccccc1` [Compound 32, N-(tert-butyl)-2-((4-oxo-3-phenyl-4,5-dihydro-3H-pyrimido[5,4-b]indol-2-yl)thio)acetamide]: the “human TLR4, values normalized to Cmpd 1” value on human TLR4 was determined as 6. The “mouse TLR4, area under curve (AUC) values normalized to Cmpd 1” value at mouse TLR4 was less than 1.

In the case of `O=C(CSc1nc2c([nH]c3ccccc32)c(=O)n1-c1ccccc1)NC1CCNCC1` [Compound 34, 2-((4-oxo-3-phenyl-4,5-dihydro-3H-pyrimido[5,4-b]indol-2-yl)thio)-N-(piperidin-4-yl)acetamide], the “human TLR4, values normalized to Cmpd 1” value on human TLR4 is recorded as less than 1. In addition, at mouse TLR4, the “mouse TLR4, area under curve (AUC) values normalized to Cmpd 1” value was less than 1.

On to `CCCCCCCC/C=C\CCCCCCCC(=O)OCC(COP(=O)(O)OCCNC(=O)CSc1nc2c([nH]c3ccccc32)c(=O)n1-c1ccccc1)OC(=O)CCCCCCC/C=C\CCCCCCCC` (stereo not drawn) [Compound 35, (Z)-3-((hydroxy(2-(2-((4-oxo-3-phenyl-4,5-dihydro-3H-pyrimido[5,4-b]indol-2-yl)thio)acetamido)ethoxy)phosphoryl)oxy)propane-1,2-diyl dioleate], for which the “human TLR4, values normalized to Cmpd 1” value at human TLR4 was less than 1. Moreover, the “mouse TLR4, area under curve (AUC) values normalized to Cmpd 1” value on mouse TLR4 was less than 1.

`O=C(CSc1nc2c([nH]c3ccccc32)c(=O)n1C1CCCCC1)NC1CCCCC1` [Compound 36, N-cyclohexyl-2-((3-cyclohexyl-4-oxo-4,5-dihydro-3H-pyrimido[5,4-b]indol-2-yl)thio)acetamide]: the “IL-6 activity in mBMDC (in words)” value in assay [1] is recorded as “some loss of activity”. Also, the “human TLR4, values normalized to Cmpd 1” value on human TLR4 amounted to 40. Also, the “mouse TLR4, area under curve (AUC) values normalized to Cmpd 1” value at mouse TLR4 is on record as 56.

`CCCCCn1c2ccccc2c2nc(SCC(=O)NC3CCCCC3)n(-c3ccccc3)c(=O)c21` [Compound 49, N-cyclohexyl-2-((4-oxo-5-pentyl-3-phenyl-4,5-dihydro-3H-pyrimido[5,4-b]indol-2-yl)thio)acetamide]: the “human TLR4, values normalized to Cmpd 1” value at human TLR4 turned out to be 11. Further, the “mouse TLR4, area under curve (AUC) values normalized to Cmpd 1” value at mouse TLR4 came to 6.

With `CCCCCCCCCCCCn1c2ccccc2c2nc(SCC(=O)NC3CCCCC3)n(-c3ccccc3)c(=O)c21` [Compound 50, N-cyclohexyl-2-((5-dodecyl-4-oxo-3-phenyl-4,5-dihydro-3H-pyrimido[5,4-b]indol-2-yl)thio)acetamide], on human TLR4, the “human TLR4, values normalized to Cmpd 1” value is given as 10. Besides, the “mouse TLR4, area under curve (AUC) values normalized to Cmpd 1” value at mouse TLR4 turned out to be 4.

For the compound `NC(=O)Cn1c2ccccc2c2nc(SCC(=O)NC3CCCCC3)n(-c3ccccc3)c(=O)c21` [Compound 52, 2-((5-(2-amino-2-oxoethyl)-4-oxo-3-phenyl-4,5-dihydro-3H-pyrimido[5,4-b]indol-2-yl)thio)-N-cyclohexylacetamide], the “human TLR4, values normalized to Cmpd 1” value on human TLR4 came to 11. Moreover, the “mouse TLR4, area under curve (AUC) values normalized to Cmpd 1” value at mouse TLR4 is recorded as 8.
